Source: BindingDB's records for doi:10.7270/Q2SN07C4 (Vanderbilt Screening Center for GPCRs, Ion Channels and …, 2009)

Target: T1, Muscarinic acetylcholine receptor M4 (Rattus norvegicus, UniProt P08485)
T1 sequence (P08485 whole entry): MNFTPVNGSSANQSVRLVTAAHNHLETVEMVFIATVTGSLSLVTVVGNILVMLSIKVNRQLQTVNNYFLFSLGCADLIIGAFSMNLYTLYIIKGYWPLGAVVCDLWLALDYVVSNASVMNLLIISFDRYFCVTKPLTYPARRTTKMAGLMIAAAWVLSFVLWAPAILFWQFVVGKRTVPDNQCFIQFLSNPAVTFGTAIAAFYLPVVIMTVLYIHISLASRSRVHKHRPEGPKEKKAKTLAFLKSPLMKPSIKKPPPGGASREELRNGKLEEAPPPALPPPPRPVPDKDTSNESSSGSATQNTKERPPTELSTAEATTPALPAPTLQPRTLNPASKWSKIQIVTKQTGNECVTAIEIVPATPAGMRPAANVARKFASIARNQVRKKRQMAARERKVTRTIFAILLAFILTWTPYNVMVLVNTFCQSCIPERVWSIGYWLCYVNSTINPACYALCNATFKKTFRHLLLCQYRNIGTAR
Experiment: effects on NMS binding at M4, late-stage follow-up, mechanism study for M4 PAM project, biochemical, NMS competition, rat M4 (AID 1939)

Cc1cc(C)c2c(N)c(C(=O)NCc3ccc4c(c3)OCO4)sc2n1 [3-amino-4,6-dimethyl-N-piperonyl-thieno[2,3-b]pyridine-2-carboxamide]
EC50: < 1420 nM
